Source: ChEMBL document CHEMBL4507319 (2021)

Legend:
[1] = molecular target: T1, Phosphatidylinositol 3-kinase C2 domain-containing subunit gamma (Homo sapiens) (UniProt O75747); test: PI3KC2g(h) Eurofins kinase panel; settings: Compound concentration 1.0 uM
T1 sequence (whole entry): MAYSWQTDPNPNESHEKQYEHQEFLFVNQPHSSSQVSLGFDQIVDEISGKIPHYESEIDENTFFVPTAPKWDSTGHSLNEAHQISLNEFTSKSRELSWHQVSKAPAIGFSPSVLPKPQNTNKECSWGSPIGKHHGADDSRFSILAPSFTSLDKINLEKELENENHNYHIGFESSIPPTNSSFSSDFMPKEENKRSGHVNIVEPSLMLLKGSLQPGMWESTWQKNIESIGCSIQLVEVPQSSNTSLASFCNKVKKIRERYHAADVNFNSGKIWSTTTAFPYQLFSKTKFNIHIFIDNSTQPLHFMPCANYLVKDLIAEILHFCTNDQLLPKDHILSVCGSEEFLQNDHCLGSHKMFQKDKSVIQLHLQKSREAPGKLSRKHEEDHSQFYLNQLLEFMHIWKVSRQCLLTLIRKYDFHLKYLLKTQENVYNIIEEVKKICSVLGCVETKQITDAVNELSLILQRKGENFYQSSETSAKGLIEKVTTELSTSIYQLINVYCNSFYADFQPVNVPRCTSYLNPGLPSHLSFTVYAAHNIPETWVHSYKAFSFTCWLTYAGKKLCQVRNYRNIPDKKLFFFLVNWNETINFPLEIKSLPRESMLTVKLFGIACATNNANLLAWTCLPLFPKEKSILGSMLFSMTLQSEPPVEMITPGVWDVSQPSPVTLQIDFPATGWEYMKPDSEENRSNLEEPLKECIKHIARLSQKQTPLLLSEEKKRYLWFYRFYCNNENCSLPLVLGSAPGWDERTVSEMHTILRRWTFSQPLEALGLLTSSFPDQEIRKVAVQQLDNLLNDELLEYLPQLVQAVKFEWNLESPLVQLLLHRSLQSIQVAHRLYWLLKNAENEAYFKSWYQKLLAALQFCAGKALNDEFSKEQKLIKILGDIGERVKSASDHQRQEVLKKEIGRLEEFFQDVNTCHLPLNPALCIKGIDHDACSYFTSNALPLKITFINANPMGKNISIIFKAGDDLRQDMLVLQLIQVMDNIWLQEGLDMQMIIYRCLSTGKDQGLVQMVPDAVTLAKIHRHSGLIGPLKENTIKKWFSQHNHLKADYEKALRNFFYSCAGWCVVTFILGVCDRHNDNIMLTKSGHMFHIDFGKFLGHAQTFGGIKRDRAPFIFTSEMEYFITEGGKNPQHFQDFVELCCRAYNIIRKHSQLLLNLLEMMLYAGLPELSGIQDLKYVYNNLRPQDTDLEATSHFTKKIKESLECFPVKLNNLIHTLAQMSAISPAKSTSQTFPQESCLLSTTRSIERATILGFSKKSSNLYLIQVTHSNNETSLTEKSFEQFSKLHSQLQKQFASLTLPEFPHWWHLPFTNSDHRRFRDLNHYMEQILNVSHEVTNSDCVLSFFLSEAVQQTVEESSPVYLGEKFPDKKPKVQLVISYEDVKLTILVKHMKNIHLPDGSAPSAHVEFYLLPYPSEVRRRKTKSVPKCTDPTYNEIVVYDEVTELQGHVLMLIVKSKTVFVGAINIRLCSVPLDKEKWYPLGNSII

[2] = molecular target: T2, Myotonin-protein kinase (Homo sapiens) (UniProt Q09013); test: DMPK(h) Eurofins kinase panel; settings: Compound concentration 1.0 uM
T2 sequence (whole entry): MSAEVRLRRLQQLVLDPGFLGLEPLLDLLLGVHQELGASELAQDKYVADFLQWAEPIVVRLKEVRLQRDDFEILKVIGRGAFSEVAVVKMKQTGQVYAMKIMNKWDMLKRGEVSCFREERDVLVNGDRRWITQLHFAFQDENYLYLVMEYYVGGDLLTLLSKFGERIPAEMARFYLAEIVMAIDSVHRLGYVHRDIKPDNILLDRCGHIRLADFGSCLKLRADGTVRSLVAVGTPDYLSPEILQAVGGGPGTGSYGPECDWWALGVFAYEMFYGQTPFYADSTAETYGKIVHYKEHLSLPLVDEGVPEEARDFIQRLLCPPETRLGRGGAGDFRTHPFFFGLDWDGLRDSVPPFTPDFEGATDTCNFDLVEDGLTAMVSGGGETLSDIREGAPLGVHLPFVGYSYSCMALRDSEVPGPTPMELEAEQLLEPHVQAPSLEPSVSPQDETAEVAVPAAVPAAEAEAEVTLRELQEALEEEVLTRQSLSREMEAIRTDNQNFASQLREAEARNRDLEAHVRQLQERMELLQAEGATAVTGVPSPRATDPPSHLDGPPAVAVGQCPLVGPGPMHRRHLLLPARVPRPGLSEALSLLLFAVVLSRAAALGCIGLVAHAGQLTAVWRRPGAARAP

CCc1ccccc1C(=O)Nc1n[nH]c2c(C)c(F)c(C3C(C#N)=C(C)N(C)C(C)=C3C#N)cc12 [BAY-3827]
% residual kinase activity [1]: 100% | % residual kinase activity [2]: 91%
